# Entries after “also recorded” stand apart in the source; their conditions may differ.
# What was measured:
# [1] = tested on: CD4+25− T cells; assay: iTreg generation from CD4+25− T cells cultured with allogeneic TLR9 activated pDCs; format: cell-based, human; settings: IDO inhibition by 1MT in pDC cultures
# Source text: (§1) CD4^+25^− T cells, when cultured with allogeneic TLR9 activated allogeneic plasmacytoid dendritic cells (pDCs), but not B-cells, lead to the generation of iTregs, CD4^+25^+FoxP3^+ suppressor cells (FIG. 2). It was also observed that iTregs (closed), but not T cells primed to TLR activated B cells (open squares), were potently suppressive of a naïve MLR culture (x-axis are x 104; MLR used 105 naïve T cells; FIG. 3). […] Since IDO catabolizes tryptophan into kynurenines (KYN), it is believed that iTregs can be generated in B cell cultures using KYN.
# [2] = tested on: naïve MLR culture; assay: MLR suppression by iTregs generated in B cell cultures using KYN; format: cell-based, human; settings: KYN added to allogeneic B cell cultures (50 μM elsewhere in the source); not blocked by 1MT
# Source text: as §1
# It has been shown that CD4^+25^− T-cells exposed to allogeneic TLR9 activated plasmacytoid dendritic cells (pDCs), but not B-cells, leads to the generation of iTregs (Moseman et al., 2004, J Immunol 173:4433-42), CD4^+25^+FoxP3^+ suppressor cells, a process dependent upon the enzyme indoleamine 2,3-dioxygenase (IDO) that catabolizes tryptophan. […] Because obtaining high numbers of non-malignant B-cells or pDCs from leukemia/lymphoma patients would be difficult, low trypt/KYN conditions in an artificial antigen-presenting cell expansion system was examined. In considering strategies for iTreg generation, experiments were designed to focus on molecular features preferentially associated with nTregs vs naïve or T effector cells. […]
# [3] = tested on: CD4+25−45RA+ T cells; assay: iTreg generation: FoxP3 flow phenotype of cultured CD4+25−45RA+ T cells at day 10; format: cell-based, human; settings: for iTreg generation / induction of CD4+127loFoxP3hi cells by day 10: single agents: rapa, TGFb 10 ng/ml, SAHA 300 nM, TSA 100 nM
# Procedure: (§2) For initial studies, to ensure inducible Treg (iTreg) conversion was being examined and not natural Treg (nTreg) expansion, CD4^+25^−45 RA^+ T cells are isolated from ficolled buffy coat cells by negative selection (CD8, CD11b, CD16, CD19, CD36, CD56 CD25) followed by CD45RA positive selection using beads. Cells are cultured in X-Vivo-15 or trypt-free media, as indicated, along with human ABneg serum (10%) and L-glutamine. rIL-2 (300 U/ml: Chiron) is added on day 2 and with re-feeds.
# In order to assay for the presence of non-Tregs and nTregs, multi-color phenotyping can be employed pre- and post-isolation and on days 7, 10, 14, 21 for both non-Tregs and nTregs (CD4/25/127lo/FoxP3) for co-expression of adhesion molecules (e.g., CD62L; LFA-1), chemokine receptors (e.g., CCR4-9; CXCR3), and cytokines (IL2, IL17, TNFa, IL10). Phosphorylated-Stat5 and p-Akt can be analyzed at 15′ post-stimulation with PMA/ionomycin.
# (§3) To simulate IDO effects, cells were cultured in low tryp+KYN using KYN at 10 μM+trypt at 1 μM until day 7 then 5 μM trypt beyond day 7 to support expansion after iTreg “imprinting” has occurred. Decitibine was added at 1-5 μM (final) to day 3 cultures. Cultures were expanded with anti-CD3/28 mAb-loaded, irradiated KT32 (FcR+) cells. Anti-CD3/28 beads (3 beads:1 cell) or 100 Gy irradiated, anti-CD3 (OKT3) loaded KT64/86 cells (1 KT cell:2 CD4^+25^− T cells) are added on day 0. Cell density is maintained at 0.2-2×10^6/ml by 50% vol/vol re-feeds. By 10 days, diluent cultured cells expanded about 30-fold, decibine about 11 fold and low tryp/KYN about 5-fold; CD4+CD127loFoxP3hi cells were 1%, 16%, and 13%, respectively (FIG. 4; upper, FoxP3hi; lower box, FoxP3int,lo). […] In studies using umbilical cord blood (UCB) nTregs, day 11 cultures re-stimulated with KT cells expanded an additional 20-fold compared to no re-stimulation.
# (§4) The next set of experiments were designed to compare the effects of a HDACi in a bead- or cell-based artificial antigen-presenting cell system (KT32) for generating iTregs (FIGS. 5B and 5C). Purified human naïve T cells (CD4^+, CD25^−, CD45RA^+) were stimulated with KT32 (K562 engineered to express human CD32) loaded with anti-CD3 and CD28 antibodies. The cells were cultured for 3 days and SAHA added a single time at the indicated concentrations, and analyzed 7 days later (day 10) for Foxp3 expression (FIG. 5B). Purified human naïve T cells (CD4^+, CD25^−, CD45RA^+) were stimulated with KT32 (K562 engineered to express human CD32) loaded with anti-CD3 and CD28 antibodies. The cells were cultured for 3 days and Trichostatin A added a single time at the indicated concentrations, and analyzed 7 days later (day 10) for Foxp3 expression.
# The next set of experiments were designed to compare the effects of the combination of an HDACi with a demethylating agent in a bead- and cell-based antigen-presenting cell system (FIG. 5F). Purified human naïve T cells (CD4^+, CD25^−, CD45RA^+) were stimulated with clinical grade anti-CD3/28 beads or with KT32 (K562 engineered to express human CD32) loaded with anti-CD3 and CD28 antibodies. On day 3 of culture, the specified HDACi were added. On day 7, a single dose of Decitibine (1 μM) was added and cultures analyzed 3 days later (day 10) for Foxp3 expression.
# [4] = tested on: CD4+25−45RA+ T cells; assay: Expansion of CD4+25−45RA+ T cells in bead- or cell-based artificial APC cultures; parameters: species or system human
# Procedure: as §2, §3
# as §4, with “Purified human naïve T cells (CD4^+, CD25^−, CD45RA^+) were stimulated with KT32 (K562 engineered to express human CD32) loaded with anti-CD3 and CD28 antibodies.” left out
# The next set of experiments were designed to compare the effects of a demethylating agent in a bead- or cell-based artificial antigen-presenting cell system (KT32) for generating iTregs (FIGS. 5D and 5E). […] The cells were cultured for 3 days and Decitibine added a single time at the indicated concentrations, and analyzed 7 days later (day 10) for Foxp3 expression (FIG. 5D). […] The cells were cultured for 3 days and 5-Azacytidine added a single time at the indicated concentrations, and analyzed 7 days later (day 10) for Foxp3 expression (FIG. 5E).
# The next set of experiments were designed to compare the effects of the combination of an HDACi with a demethylating agent in a bead- and cell-based antigen-presenting cell system (FIG. 5F). […] On day 7, a single dose of Decitibine (1 μM) was added and cultures analyzed 3 days later (day 10) for Foxp3 expression.
# [5] = tested on: CD8+ T cell; assay: iTreg suppression of CD8+ T cell proliferation by CFSE dye-dilution; format: cell-based, human; settings: 1:16 ratio
# Procedure: as §3
# In vitro potency of expanded iTregs vs nTregs may be assayed for suppression in MLR and anti-CD3 mAb driven, CD8+ CFSE T cell proliferation assays.
# [6] = tested on: CD4+25−45RA+ cells; assay: Foxp3 expression at day 14 after Decitibine ± TGFβ induction and re-stimulation with anti-CD3 loaded KT64/86; format: cell-based, human; settings: for Foxp3 expression: Decitibine 5 μM day 7 ± TGFβ 10 ng/ml day 0, re-stimulated day 7
# Procedure: The next set of experiments was designed to determine whether re-stimulation of iTreg increases the percentage of Foxp3++ cells. nTreg (CD4^+25^++) and CD4^+25^−45 RA^+ cells were purified from peripheral blood (PB) using magnetic beads and the cells were stimulated with anti-CD3 loaded KT64/86 cells (K562 cells modified to express an Fc receptor CD64 and CD86). nTreg were cultured in the presence of IL-2 (300 U/ml) and Rapamycin (109 nM) while CD4^+25^− cells were cultured with IL-2 alone, or were induced to become Treg by the addition of Decitibine (5 μM at day 7) and Rapamycin (109 nM at day 7). Portions of the CD4^+25^−45 RA^+ and Decitibine iTreg cultures were also re-stimulated on day 7 with anti-CD3 loaded KT64/86 cells. After a total of 14 days, cells were harvested and the expression of CD4, CD25, and Foxp3 was measured using flow cytometry. FIG. 6 summarizes the results in the context of percentage of CD4+ gated cells expressing low (Foxp3+) or high (Foxp3++) levels of Foxp3.
# The next set of experiments was designed to determine whether TGFβ could synergize the effects of Decitibine to induce Foxp3 expression in the cells. Briefly, nTreg (CD4^+25^++) and CD4^+25^−45 RA^+ cells were purified from peripheral blood using magnetic beads and stimulated with anti-CD3 loaded KT64/86 cells. nTreg were cultured in the presence of IL-2 (300 U/ml) and Rapamycin (109 nM) while CD4^+25^− cells were cultured with IL-2 alone, or were induced to become Treg by the addition of Decitibine (5 μM at day 7) in the presence or absence of TGFβ (10 ng/ml, day 0). All samples were re-stimulated on day 7 with anti-CD3 loaded KT64/86 cells. After a total of 14 days, cells were harvested and expression of CD4, CD25, and Foxp3 was measured using flow cytometry.
# [7] = tested on: CD4+25+ Tregs; assay: Expansion of CD4+25+ Tregs with anti-CD3/28 microbeads or KT64/86 cells plus IL-2, with or without rapa; format: cell-based, human
# Source text: (§5) Adding rapa, which is an mTOR inhibitor, (labeled as +) reduced mean expansion rates by 30-fold with beads resulting in ≤10-fold mean expansion rates by day 14.
# [8] = tested on: PBMNCs; assay: Suppression by expanded Tregs (ratios of Tregs to PBMNCs); format: cell-based, human; settings: TGFβ 10 ng/ml added to the cells
# Source text: as §5
compound,measurement,setting,value
"Cn1cc(C[C@H](N)C(=O)O)c2ccccc21 [1MT, 1-methyl-tryptophan]",iTreg conversion,[1],prevented iTreg conversion
"Nc1ccccc1C(=O)CC(N)C(=O)O (stereo not shown) [KYN, kynurenine]",MLR suppression / suppressive iTregs,[2],potent MLR suppression; also recorded: potently suppressive iTregs
"O=C(CCCCCCC(=O)Nc1ccccc1)NO [SAHA, suberoylanilide hydroxamic acid]",iTreg generation / induction of CD4+127loFoxP3hi cells by day 10,[3],did not result in iTregs; also recorded: No iTreg generation
same,T cell expansion,[4]; SAHA 300 nM on day 3,did not inhibit T cell expansion
same,toxicity in T cell culture,[4]; SAHA 100 μM on day 0,toxic
"CC(/C=C/C(=O)NO)=C\[C@@H](C)C(=O)c1ccc(N(C)C)cc1 [TSA, trichostatin A]",CD4+127loFoxP3hi,"[3]; bead expanded cultures, day 10, diluent 1.7",1.6%
same,FoxP3int/lo,"[3]; bead expanded cultures, day 10, diluent 21.8%",15.4%
same,iTreg generation / induction of CD4+127loFoxP3hi cells by day 10,[3],No iTreg generation
same,Day 10 expansions,"[4]; cell-based cultures, HDACi day 3, decitibine day 7, diluent 20-fold",15 fold
"Nc1ncn([C@H]2C[C@H](O)[C@@H](CO)O2)c(=O)n1 [decitibine, 5-aza-2′-deoxycitidine]",CD4+CD127loFoxP3hi cells,"[3]; by 10 days, KT32 cultures, decitibine 1-5 μM day 3 or low tryp+KYN",16%
same,expansion by 10 days,"[4]; anti-CD3/28 mAb-loaded KT32 cells, decitibine 1-5 μM day 3, KYN 10 μM + trypt 1 μM until day 7 then 5 μM",about 11 fold
same,iTreg suppression of CD8+ T cell proliferation,[5],41%
same,percentage of Foxp3++ cells,"[6]; Decitibine 5 μM and Rapamycin 109 nM at day 7, re-stimulation on day 7",significantly increased
same,Foxp3 expression,[6],some Foxp3 expression
"CO[C@H]1C[C@@H]2CC[C@@H](C)[C@@](O)(O2)C(=O)C(=O)N2CCCC[C@H]2C(=O)O[C@H]([C@H](C)C[C@@H]2CC[C@@H](O)[C@H](OC)C2)CC(=O)[C@H](C)/C=C(\C)[C@@H](O)[C@@H](OC)C(=O)[C@H](C)C[C@H](C)/C=C/C=C/C=C/1C [rapa, rapamycin]",reduction of mean expansion,[7]; Rapa added to KT64/86 driven cultures,10 fold
same,reduction of mean expansion rates,"[7]; rapa added, anti-CD3/28 beads",30 fold
same,mean expansion rates by day 14,"[7]; rapa added, anti-CD3/28 beads, day 14",≤ 10 fold
transforming growth factor-beta [TGFβ],suppression,[8],did not increase suppression
same,Foxp3 expression,[6],synergizes with Decitibine to induce Foxp3 expression
